What was measured:
[1] = molecular target: Protein farnesyltransferase (Homo sapiens, UniProt P49354+P49356); test: Inhibition of Farnesyltransferase catalyzed transfer of the FPP moiety to dansyl-GCVLS; format: protein-complex assay
[2] = molecular target: Geranylgeranyl transferase type I (Homo sapiens, UniProt P49354+P53609); test: Inhibition of Geranylgeranyl transferase type I (GGPT I) catalyzed transfer of GGPP to dansyl-GCVLL; format: protein-complex assay

Structure (SMILES)	IC50 [1]	IC50 [2]
COC(=O)[C@H](CCSC)N(C(=O)c1ccccc1)C1CCNCC1	> 100 µM	–
COC(=O)[C@H](CCSC)N(C(=O)c1ccccc1)C1CCN(C(=O)[C@H]2CSCN2)CC1	> 100 µM	–
COC(=O)[C@H](CCSC)N(C(=O)c1ccccc1)C1CCN(C(=O)c2cscn2)CC1	52.5 µM	> 100 µM
COC(=O)[C@H](CCSC)N(C(=O)c1ccccc1)C1CCN(Cc2cscn2)CC1	41.7 µM	> 100 µM
COC(=O)[C@H](CCSC)N(C(=O)c1ccccc1)C1CCN(Cc2c[nH]cn2)CC1	16.2 µM	> 100 µM

The next compounds have a lower IC50 [1] than those just listed; values first:

IC50 [1]	IC50 [2]	Structure (SMILES)
0.034 µM	5.1 µM	CSCCC(NC(=O)[C@H](Cc1ccccc1)NCC[C@@H](C)CNC[C@H](N)CSC)C(=O)O (stereo partly specified)
2.14 µM	> 100 µM	COC(=O)[C@H](CCSC)N(C(=O)c1ccccc1)C1CCN(C(=O)[C@@H]2CSCN2)CC1
0.02 µM	> 100 µM	COC(=O)[C@H](CCSC)N(C(=O)c1ccccc1)C1CCN(C(=O)C(N)CS)CC1 (stereo partly specified)
0.072 µM	> 100 µM	CSCC[C@H](NC(=O)c1ccc(NC(=O)[C@@H](N)CS)cc1)C(=O)O
